Test results as given in patent publication US20200085776A1, “Methods of Reducing C-Reactive Protein and/or Treating Cardiovascular Disease” (CARDAX, INC., priority 2018, published 2020).

System: Cholesterol
Assay: Fasting lipid panel: total cholesterol, CHASE clinical study
Assay type: in vivo, human
Details: for Cholesterol V2 to V6 % Change Max / Cholesterol V2 to V6 % Change Mean (SD) / Cholesterol V2 to V6 % Change Median / Cholesterol V2 to V6 % Change Min / Cholesterol V2 to V6 Change Max / Cholesterol V2 to V6 Change Mean (SD) / Cholesterol V2 to V6 Change Median / Cholesterol V2 to V6 Change Min: baseline to Week 12
Text: Blood samples shall be obtained under fasted conditions for a lipid panel at V2, V4, V6, V7, and V8. This panel shall include total cholesterol, LDL-C, VLDL-C, HDL-C, and triglycerides. A minimum eight-hour fast (water allowed) is required for the lipid panel.
Fasting lipid profiles and fasting chemistry panels may be obtained within the visit time window on a day separate from the scheduled office visit, within two days before or after the other study procedures. A minimum of eight hours fasted (water allowed ad lib) is required.
Table 7M provides the changes in lipid levels (mg/dL) (V2 to V6) for subjects.

[1] = Group X 12 mg BID, V2 baseline pre-dose, all subjects
[2] = Group X 12 mg BID, V2 baseline pre-dose, subjects with hyperlipidemia
[3] = Group X 12 mg BID, V6 Week 12, all subjects
[4] = Group X 12 mg BID, V6 Week 12, subjects with hyperlipidemia
[5] = Group X 12 mg BID, all subjects
[6] = Group X 12 mg BID, subjects with hyperlipidemia
[7] = Group Z 48 mg BID, V2 baseline pre-dose, all subjects
[8] = Group Z 48 mg BID, V2 baseline pre-dose, subjects with hyperlipidemia
[9] = Group Z 48 mg BID, V6 Week 12, all subjects
[10] = Group Z 48 mg BID, V6 Week 12, subjects with hyperlipidemia
[11] = Group Z 48 mg BID, all subjects
[12] = Group Z 48 mg BID, subjects with hyperlipidemia

## CC1=C(/C=C/C(C)=C/C=C/C(C)=C/C=C/C=C(C)/C=C/C=C(C)/C=C/C2=C(C)C(=O)C(O)CC2(C)C)C(C)(C)CC(O)C1=O (stereo not shown) [Astaxanthin, astaxanthin]
[1]
  Cholesterol Max: 342.0 mg/dL
  Cholesterol Mean (SD): 192.0 (65.49) mg/dL
  Cholesterol Median: 180.0 mg/dL
  Cholesterol Min: 113. mg/dL
[2]
  Cholesterol Max: 342.0 mg/dL
  Cholesterol Mean (SD): 184.5 (73.91) mg/dL
  Cholesterol Median: 164.0 mg/dL
  Cholesterol Min: 113.0 mg/dL
[3]
  Cholesterol Max: 339.0 mg/dL
  Cholesterol Mean (SD): 182.6 (70.21) mg/dL
  Cholesterol Median: 163.0 mg/dL
  Cholesterol Min: 117.0 mg/dL
[4]
  Cholesterol Max: 339.0 mg/dL
  Cholesterol Mean (SD): 170.3 (74.95) mg/dL
  Cholesterol Median: 137.5 mg/dL
  Cholesterol Min: 117.0 mg/dL
[5]
  Cholesterol V2 to V6 % Change Max: 6.67%
  Cholesterol V2 to V6 % Change Mean (SD): −5.34 (10.55) %
  Cholesterol V2 to V6 % Change Median: −4.90%
  Cholesterol V2 to V6 % Change Min: −25.0%
  Cholesterol V2 to V6 Change Max: 17.00 mg/dL
  Cholesterol V2 to V6 Change Mean (SD): −9.45 (18.08) mg/dL
  Cholesterol V2 to V6 Change Median: -7.00 mg/dL
  Cholesterol V2 to V6 Change Min: -39.0 mg/dL
[6]
  Cholesterol V2 to V6 % Change Max: 6.20%
  Cholesterol V2 to V6 % Change Mean (SD): −7.65 (11.10) %
  Cholesterol V2 to V6 % Change Median: −6.92%
  Cholesterol V2 to V6 % Change Min: −25.0%
  Cholesterol V2 to V6 Change Max: 8.00 mg/dL
  Cholesterol V2 to V6 Change Mean (SD): −14.3 (17.60) mg/dL
  Cholesterol V2 to V6 Change Median: -14.0 mg/dL
  Cholesterol V2 to V6 Change Min: -39.0 mg/dL
[7]
  Cholesterol Max: 316.0 mg/dL
  Cholesterol Mean (SD): 195.1 (57.82) mg/dL
  Cholesterol Median: 190.0 mg/dL
  Cholesterol Min: 121.0 mg/dL
[8]
  Cholesterol Max: 316.0 mg/dL
  Cholesterol Mean (SD): 189.7 (58.32) mg/dL
  Cholesterol Median: 173.0 mg/dL
  Cholesterol Min: 121.0 mg/dL
[9]
  Cholesterol Max: 284.0 mg/dL
  Cholesterol Mean (SD): 169.7 (45.52) mg/dL
  Cholesterol Median: 160.5 mg/dL
  Cholesterol Min: 104.0 mg/dL
[10]
  Cholesterol Max: 284.0 mg/dL
  Cholesterol Mean (SD): 161.9 (46.52) mg/dL
  Cholesterol Median: 151.0 mg/dL
  Cholesterol Min: 104.0 mg/dL
[11]
  Cholesterol V2 to V6 % Change Max: 15.86%
  Cholesterol V2 to V6 % Change Mean (SD): −8.52 (14.73) %
  Cholesterol V2 to V6 % Change Median: −8.29%
  Cholesterol V2 to V6 % Change Min: −38.0%
  Cholesterol V2 to V6 Change Max: 32.00 mg/dL
  Cholesterol V2 to V6 Change Mean (SD): −18.6 (31.99) mg/dL
  Cholesterol V2 to V6 Change Median: -13.5 mg/dL
  Cholesterol V2 to V6 Change Min: -92.0 mg/dL
[12]
  Cholesterol V2 to V6 % Change Max: 15.86%
  Cholesterol V2 to V6 % Change Mean (SD): −9.11 (16.06) %
  Cholesterol V2 to V6 % Change Median: −8.48%
  Cholesterol V2 to V6 % Change Min: −38.0%
  Cholesterol V2 to V6 Change Max: 32.00 mg/dL
  Cholesterol V2 to V6 Change Mean (SD): −18.8 (33.97) mg/dL
  Cholesterol V2 to V6 Change Median: -13.5 mg/dL
  Cholesterol V2 to V6 Change Min: -92.0 mg/dL
